Like-named read-outs stand apart in the source and are kept apart here. Peptide text beside a SMILES is read from it.

Assay [1] has as its system S. aureus or S. epidermidis. It counts as cell-based. The source says:
In agreement with this none of these peptides were particularly hydrophobic or cationic (Table 4). […] This could be tested by construction of deletion mutants lacking one or more of these permeases. We synthesized and tested linear counterparts of the active peptides III-5, III-6 and III-7. […] Increased antibacterial activity of peptides due to circularization has previously been described.

In assay [2] the test system is DNA replication in S. aureus strain 8325-4. Description: DNA synthesis, incorporation of 3H-thymidine. In kind it is cell-based, Staphylococcus aureus. As to conditions: 50 μg/ml peptide; LB, 37°C; TCA precipitate, scintillation counting; repeated 3 times. The method, then: (§1) In order to test the direct effects of peptides III-5 and III-6 on DNA replication in S. aureus, strain 8325-4 was grown exponentially at 37°C in LB medium. Incorporation of ^3H-thymidine into the DNA was determined at various times after addition of 50 μg/ml of peptides III-5 or III-6. […] Protein synthesis, determined as incorporation of ^35S-methionine, was unaffected by peptide addition for at least 180 minutes (Fig. S1) which is well after the onset of DNA synthesis inhibition. Therefore the DNA replication inhibition is not a consequence of a more general effect on protein synthesis, and we conclude that peptide III-5 and III-6 inhibits replication by interfering with the dnaN encoded β-clamp.
Figure 5 Peptides III-5 and III-6 Inhibit DNA replication. […] Samples were taken at the indicated time-points and incorporation of ^3H into DNA was measured by liquid scintillation counting of TCA precipitated material. […]
For measuring DNA and protein synthesis, S. aureus strain 8325−4 was grown exponentially at 37°C in LB supplemented with 0.2 ml ^3H-thymidine (20 Ci/mmol,1 mCi/ml; Perkin Elmer Inc.) and uridine (50 μg/ml). […] The incorporation of ^3H into DNA was determined using a 1450 MicroBeta TriLux Microplate and Scintillation and Luminiscence counter (Perkin Elmer Inc.).

In assay [3] the test system is Protein synthesis in S. aureus strain 8325-4. Description: Protein synthesis, incorporation of 35S-methionine. It counts as cell-based, Staphylococcus aureus. As to conditions: 50 μg/ml peptide; for at least 180 minutes; repeated 3 times. The method, then: as §1
S. aureus strain 8325-4 was grown exponentially in LB supplemented with ^35S-methionine. At T=0 peptide III-5 (grey triangles) or III-6 (green squares) was added to a final concentration of 50 μg/ml. Addition of buffer (red filled circles) served as control. Samples were taken at the indicated time-points and incorporation of ^35S into protein was measured by liquid scintillation counting of TCA precipitated material. The experiment was repeated 3 times with similar result. The result from one experiment is shown.

The subject of assay [4] is S. aureus strain 8325-4. Description: Growth (colony forming units) of S. aureus with or without DnaN overproduction after peptide addition. In kind it is cell-based, Staphylococcus aureus. The settings on record: 40 μg/ml peptide, LB, 37°C, repeated 4 times; for Bacterial growth of uninduced cultures after peptide addition: 8 hours duration, colony forming units; for Bacterial growth of cultures overproducing DnaN after peptide addition: dnaN induced with 10 μM CdCl2 3 hours before (pSC141). The method, then:
To ensure that the antibacterial effects of peptides III-5 and III-6 were the result of direct interaction of these peptides with the β-clamp, we decided to overproduce DnaN in S. aureus cells. The dnaN gene was cloned under control of the cadmium induclible pCAD promoter of plasmid pCN51 [37]. Cells were grown exponentially at 37°C in LB medium and 3 hours prior to peptide addition expression of dnaN was induced by addition of 10 μM CdCl2. At time T = 0 peptides III-5 or III-6 were added to a final concentration of 40 μg/ml which is very close to the MIC value for both of these peptides (Fig. 4).
Figure 4 Overproduction of DnaN in S. aureus relieves the growth inhibition imposed by peptides III-5 and […]. S. aureus strain 8325-4 containing either the vector plasmid pCN51 (black filled squares) or plasmid pSC141 (grey triangles) was grown exponentially at 37°C in LB medium supplemented with 10 μg/ml erythromycin. CdCl2 was added to all cultures to a final concentration of 10 μM to induce overproduction of DnaN from pSC141 three hours prior to peptide addition. At T = 0, 40 μg/ml of peptide III-5 (middle panel) or III-6 (bottom panel) was added to the cultures. The number of colony forming units was determined by plating. The experiment were repeated 4 times with similar results.

In assay [5] the test system is S. epidermidis. It counts as cell-based, Staphylococcus epidermidis. The settings on record: cyclic peptides; data not shown. The method, then:
(§2) The antibacterial activities of the purified peptides were determined against Staphylococcus epidermidis and S. aureus. […] We can conclude that some but not all of the identified cyclic peptides are able to penetrate the bacterial membrane to find their intracellular target. […] As expected none of the peptides isolated had any activity towards E. coli, whereas they inhibited growth of B. subtilis, another gram positive bacterium (data not shown).

Assay [6] concerns S. aureus. It counts as cell-based, Staphylococcus aureus. The settings on record: cyclic 8-mer CRXXXXXX, determined for S. aureus. The method, then:
as §2

Assay [7] relates to S. aureus DnaN-DnaN interaction (β-sliding clamp dimerization). Description: Bacterial two-hybrid (BTH) β-galactosidase assay of DnaN-DnaN interaction. As to conditions: for Ability to interfere with DnaN dimerization after reduction to 8-mers: cyclic 8-mers with the sequence SXXXXXXG expressed intracellularly, not shown; for Reduction of DnaN-DnaN interaction when produced intracellularly: cyclic peptides expressed in E. coli, Fig. 3. In kind it is cell-based, Staphylococcus aureus. The method, then:
The library was screened for peptides able to disrupt DnaN-DnaN interaction of the Staphylococcus replisome by transforming into the R-BTH strain SC01 containing interacting Cya fusion proteins. Cells were plated on plates containing 5-FOA and 1 mM IPTG to induce expression of the cyclic peptides. We readily identified clones where expressed peptides restored cell viability in the presence of 5-FOA (Fig. 3A). To initially assess the activity of the selected peptides we determined their ability to reduce DnaN-DnaN interaction in the original two hybrid system.
Figure 3 Identification of peptides that interfere with DnaN-DnaN interaction. […] After screening of our SICLOPPS library, growth was restored in 7 clones.A. (B) The cyclic peptides identified in (A) were expressed in the original bacterial two-hybrid strain (BTH101) containing T18:DnaN and DnaN:T25 fusion plasmids and the level of β-galactosidase activity was determined as described in Materials and Methods.
Bacterial two-hybrid assay was performed as described previously. Derivatives of plasmids pUT18 and p25N encoding replication proteins were constructed by cloning PCR-amplified DNA fragments in frame with the T25 and T18 fragments of cya. T18 and T25 fusions were transformed into BTH101, and plated on plates containing 40 μg/ml of 5-bromo-4-chloro-indolyl-β-D-galactoside (X-gal) and relevant antibiotics. […] For β-galactosidase assays, cells were grown exponentially at 30°C in LB supplemented with 0.5 mM IPTG, and β-galactosidase activities were measured as described by.

The subject of assay [8] is S. aureus strain 8325-4. Description: Fluorescence microscopy with DAPI staining (cell size, DNA content). It counts as cell-based, Staphylococcus aureus. As to conditions: 50 μg/ml; LB, 37°C. The source says:
The effect of peptides III-5 and III-6 on cell size and DNA content was visualized by fluorescence microscopy. […] A likely explanation is that peptide III-6, through its inhibitory effect on DNA synthesis, also results in an inability for cells to divide. Similar observations have been made for E. coli where failure to complete chromosome replication result in division inhibition and filamentation.
Figure 7 Peptide III-6 affect S. aureus cell size, morphology and DNA content. S. aureus strain 8325−4 was grown exponentially at 37°C in LB medium. […] Cells were stained with DAPI prior to fluorescence microscopy (Materials and Methods).
S. aureus strain 8325-4 or B. subtilis strain 168 was grown exponentially at 37°C in LB. […] The cells were stained with the live/dead stain according to the manufacturer. Phase-contrast and fluorescence images were acquired using a Leica DM5000B microscope with a×100 HCX PL APO NA 1.4 objective and a Leica DFC350FX cooled charge-coupled device camera controlled through FW4000 software (version 1.2.1; Leica Microsystems).

The subject of assay [9] is E. coli. Description: Intracellular expression of cyclic DnaA1-86 in E. coli (growth, morphology). It counts as cell-based, Escherichia coli. The settings on record: IntC::DnaA1-86::IntN induced with 2 mM IPTG, 30°C; effect attributed mainly to the cyclic fragment. The method, then:
We used the SICLOPPS technology for intracellular synthesis of cyclic peptide libraries. Cyclic peptides were chosen over their linear counterparts to limit degradation by cellular proteases. We initially tested the SICLOPPS system by inserting the coding region for amino acids 1−86 (Domain I) of DnaA from E.coli between the C- and N-terminal parts of the split intein.
Figure 2 Intracellular production of cyclic DnaA1-86. Expression of IntC::DnaA1−86::IntN was induced by addition of 2 mM IPTG to cells growing exponentially at 30°C or by plating exponential growing cells on plates containing 2 mM IPTG followed by incubation at 30C. A. Intein-DnaA precursor and splice products were visualized by Western blot using polyclonal anti-DnaA antibodies. B. Growth on LB plates containing 2 mM IPTG (top) and phase-contrast images (bottom) of expressing IntC::IntN (left) or after three hours expression of IntC::DnaA1−86::IntN (right).
Because all cells contained a mix of precursor and splice product it was not clear which species were responsible for filamentation. We therefore mutated the splice site at the IntC-DnaA1−86 (IntC-HNS-DnaA1−86 to IntC-QYS-DnaA1−86) junction to prevent splicing.

As to `CC(C)C[C@@H]1NC(=O)[C@H](Cc2ccccc2)NC(=O)[C@H](C(C)C)NC(=O)[C@H](CCCNC(=N)N)NC(=O)[C@H](CS)NC(=O)[C@H](CS)NC(=O)CNC(=O)[C@H](CS)NC1=O` [III-5] (cyclo(CRVFLCGC)), the “MIC values (range given for the three active cyclic peptides)” value in [1] (cyclic peptides, summary over S. aureus (III-5, III-6) and S. epidermidis (III-7)) is reported as 20−50 μg/ml. In addition, in assay [2], the “Accumulation of DNA (3H-thymidine incorporation)” value is on record as “severely reduced accumulation of DNA”. Further, the “Protein synthesis (35S-methionine incorporation)” value in assay [3] was “unaffected”. In assay [4], the “Bacterial growth of uninduced cultures after peptide addition” value is on record as “cessation of bacterial growth” and the “Bacterial growth of cultures overproducing DnaN after peptide addition” value is “continued growth”. For the same molecule, the “Potency against S. epidermidis compared with S. aureus” value in assay [5] is “somewhat more potent against S. epidermidis”. The “MIC for cyclic peptide” value in [6] (highest concentration tested 100 μg/ml) was found to be 50 µg/mL. Further, in assay [6] (value in brackets), the “MIC for cyclic peptide (molar)” value was 57 µM. In addition, in assay [7], the “Ability to interfere with DnaN dimerization after reduction to 8-mers” value is “retaining their ability to interfere with DnaN dimerization” and the “Reduction of DnaN-DnaN interaction when produced intracellularly” value is reported as “efficient in reducing DnaN-DnaN interaction”.
Turning to `CC(C)C[C@@H]1NC(=O)CNC(=O)[C@H](CCC(N)=O)NC(=O)[C@H](CO)NC(=O)[C@H](CCCNC(=N)N)NC(=O)[C@H](CS)NC(=O)[C@H](CCCCN)NC(=O)[C@H](Cc2ccccc2)NC1=O` [III-6] (cyclo(CRSQGLFK)), the “MIC values (range given for the three active cyclic peptides)” value in assay [1] was 20−50 μg/ml. Further, the “Accumulation of DNA (3H-thymidine incorporation)” value in assay [2] is “severely reduced accumulation of DNA”. In addition, in [3], the “Protein synthesis (35S-methionine incorporation)” value is reported as “unaffected”. In assay [4], the “Bacterial growth of uninduced cultures after peptide addition” value was “cessation of bacterial growth” and the “Bacterial growth of cultures overproducing DnaN after peptide addition” value was “continued growth”. Also, the “Potency against S. epidermidis compared with S. aureus” value in [5] is listed as “somewhat more potent against S. epidermidis”. In assay [8], the Cell size entry was “increased cell size” and the “DNA distribution between cells (DAPI staining)” value was “uneven DNA distribution between cells”. Also, in assay [7], the “Ability to interfere with DnaN dimerization after reduction to 8-mers” value is recorded as “retaining their ability to interfere with DnaN dimerization” and the “Reduction of DnaN-DnaN interaction when produced intracellularly” value is given as “efficient in reducing DnaN-DnaN interaction”.

B1: cyclic DnaA1−86: spliced cyclic fragment of amino acids 1−86 (Domain I) of E. coli DnaA produced by SICLOPPS (protein, UniProt P03004 1-86, looked up, fragment)
chain: MSLSLWQQCLARLQDELPATEFSMWIRPLQAELSDNTLALYAPNRFVLDWVRDKYLNNINGLLTSFCGADAPQLRFEVGTKPVTQT
modifications: cyclized by SICLOPPS
notes: spliced cyclic fragment of amino acids 1−86 (Domain I) of E. coli DnaA produced by SICLOPPS
On to B1, for which the “Effect of intracellular expression on E. coli growth and morphology” value in [9] was “inhibition of growth and cell filamentation”.
